Data as given in patent publication US20210002712A1, “PHOSPHATIDIC ACID SENSOR” (NATIONAL UNIVERSITY CORPORATION CHIBA UNIVERSITY, priority 2019, published 2021).

What was measured:
[1] = Liposome cosedimentation assay, 18:1/18:1-PA liposomes; format: binding; conditions: 6×His-SUMO-tagged protein 2.5 μM; PA 150 μM
Description: FIG. 1. A schematic architecture of α-Syn and its deletion mutants. FIG. 2. The purified SUMO-tagged-α-Syn and its deletion mutant protein (2.5 μM) were incubated with 18:1/18:1-PA or 18:1/18:1-PS liposomes (PA or […]: 150 μM) and then separated by ultracentrifugation. SDS-PAGE (15%) was performed and separated proteins were stained with Coomassie Brilliant Blue. The positions of α-Syn and its mutants are indicated with arrow heads. The amounts of protein in the supernatant (S) and precipitant (P) were quantified by densitometry using ImageJ software. Binding activity was calculated as the percentage of the precipitate band intensity compared to the total band intensities. Values are presented as the mean±S.D. of four independent experiments. **P<0.01 versus the 18:1/18:1-PS liposome.
FIG. 3. The purified SUMO-tagged-α-Syn-N protein (2.5 μM) was incubated with control (PC and Chol alone), 16:0/16:0-PA, 16:0/18:1-PA, 18:1/18:1-PA, or 18:0/18:0-PA liposomes (PA: 150 μM) and then separated by ultracentrifugation. SDS-PAGE (15%) was performed and separated proteins were stained with Coomassie Brilliant Blue. The position of α-Syn-N is indicated with an arrow head.
FIG. 4. The amounts of protein in the supernatant (S) and precipitant (P) were quantified by densitometry using ImageJ software. Binding activity was calculated as the percentage of the precipitate band intensity compared to the total band intensities. Values are presented as the mean±S.D. of three independent experiments. #P<0.05, ##P<0.01, ###P<0.005 versus the 18:1/18:1-PA-liposome, *P<0.05, ***P<0.005 versus the control liposome.
(§1) FIG. 5. The purified SUMO-tagged-α-Syn protein (0.1 μM) was incubated with 18:1/18:1-PA liposomes of the indicated concentrations (0-20 μM) and then separated by ultracentrifugation. SDS-PAGE (15%) was performed and separated proteins were detected with silver staining. The position of α-Syn-N is indicated with an arrow head.
FIG. 6. The amounts of protein in the precipitant were quantified by densitometry using ImageJ software. Binding activity was calculated as the percentage of the precipitate band intensity compared to the total band intensities (Input). Values are presented as the mean±S.D. of four independent experiments. The Kd was determined using GraphPad Prism 8 (Dissociation-One phase exponential decay).
as §1, with “7.” for “5.”, “18:1/18:1-PA, 18:1/18:1-PS, 18:1/18:1-PI(4,5)P2, 18:1/18:1-PE and d18:1/18:1-C1P” for “18:1/18:1-PA”, “(20” for “of the indicated concentrations (0-20”, “(15%) analysis” for “(15%)”
FIG. 8. The amounts of protein in the precipitant were quantified by densitometry using ImageJ software. The PA binding activity of α-Syn-N was set to 100%. Values are presented as the mean±S.D. of three independent experiments. ***P<0.005 versus 18:1/18:1-PA liposome.
The following lipid mixtures were used: the control liposome: Chol (50 mol %) and 16:0/18:1-PC (50 mol %); and the PA liposome: Chol (50 mol %), 16:0/18:1-PC (35 mol %) and each PA species (15 mol %). The combined dried lipid mixture was resuspended in HEPES buffer. Then, the lipid mixture was vortexed for 1 min. Liposome formation was induced by sonication at 75° C. The purified SUMO-tagged α-Syn and its deletion mutants (2.5 μM) were dissolved in HEPES buffer and incubated with the control or PA-containing liposomes at room temperature for 1 h. Then, the samples were centrifuged at 200,000 g at 4° C. for 1 h. The precipitant was dissolved in HEPES buffer. The supernatant and pellet were analyzed by SDS-PAGE followed by Coomassie Brilliant Blue and silver staining. Quantitative densitometry was performed using ImageJ software. Since the lipid forms a bilayer, half of the actual concentration was considered.

[2] = target: T1, EGFP-DGKγ (Homo sapiens, UniProt P49619); assay: PMA-induced translocation of EGFP-DGKγ in COS-7 cells; format: cell-based; conditions: 1 μM PMA for 30 min
T1 construct: expressed in transfected cells; host or cells: COS-7
T1 sequence (P49619 whole entry): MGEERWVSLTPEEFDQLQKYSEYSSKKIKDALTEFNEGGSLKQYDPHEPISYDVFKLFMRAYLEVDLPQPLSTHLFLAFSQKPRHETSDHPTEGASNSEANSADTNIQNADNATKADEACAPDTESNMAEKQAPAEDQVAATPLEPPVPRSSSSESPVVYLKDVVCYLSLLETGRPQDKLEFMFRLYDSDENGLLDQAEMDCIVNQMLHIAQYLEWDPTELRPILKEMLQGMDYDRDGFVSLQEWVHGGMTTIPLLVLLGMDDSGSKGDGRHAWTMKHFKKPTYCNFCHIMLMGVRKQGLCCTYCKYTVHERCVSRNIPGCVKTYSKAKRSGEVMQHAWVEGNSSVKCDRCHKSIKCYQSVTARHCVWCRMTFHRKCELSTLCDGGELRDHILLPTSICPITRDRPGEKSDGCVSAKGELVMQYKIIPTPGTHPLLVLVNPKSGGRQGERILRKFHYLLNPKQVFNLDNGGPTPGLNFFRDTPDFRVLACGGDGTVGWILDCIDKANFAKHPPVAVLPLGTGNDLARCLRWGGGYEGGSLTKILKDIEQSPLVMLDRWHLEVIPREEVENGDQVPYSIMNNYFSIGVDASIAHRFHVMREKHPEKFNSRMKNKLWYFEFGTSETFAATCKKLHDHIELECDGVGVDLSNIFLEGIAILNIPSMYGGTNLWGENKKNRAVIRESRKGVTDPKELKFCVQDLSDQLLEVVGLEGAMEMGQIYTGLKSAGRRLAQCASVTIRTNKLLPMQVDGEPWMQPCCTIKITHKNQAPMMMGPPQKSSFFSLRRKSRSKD
Description: FIGS. 19 and 20. […] Representative data from three independent experiments are shown. Scale bars, 20 μm. FIG. 20.
COS-7 cells were maintained in Dulbecco's modified Eagle's medium supplemented with 10% fetal bovine serum, 100 units/ml penicillin, and 100 μg/ml streptomycin at 37° C. in an atmosphere containing 5% CO2. Cells were transiently transfected using PolyFect reagent as described by the manufacturer.
The cells were then fixed in 4% paraformaldehyde. The coverslips were mounted using Vectashield. […] Images were acquired using FV-10 ASW software.

| Compound | PA-binding activity (18:1/18:1-PA liposomes) [1] | translocation of EGFP-DGKγ [2] |
| --- | --- | --- |
| α-Syn-C: C-terminal region deletion mutant of α-Syn (Lys96-Ala140), 6×His-SUMO-tagged | failed to show substantial PA-binding activity |  |
| α-Syn-NAC-C: NAC and C deletion mutant of α-Syn (Glu61-Ala140), 6×His-SUMO-tagged | failed to show substantial PA-binding activity |  |
| CCCCCCCCCCCCCC(=O)O[C@@H]1[C@@H](C)[C@@]2(O)[C@@H](C=C(CO)C[C@]3(O)C(=O)C(C)=C[C@@H]23)[C@@H]2C(C)(C)[C@]12OC(C)=O [PMA, phorbol 12-myristate 13-acetate] |  | led to the translocation of EGFP-DGKγ from the cytoplasm to the plasma membrane |
